Assay results reported in paper PMC11325214 (2024).

Tested on: L-Procaine aptamer (DNA, aptamer) GGCGACAAGGAAAATCCTTCAACGAAGGTGGGTGGCC
Test: E-AB square wave voltammetry, 3D-printed gold electrode cell
Conditions: undiluted human serum; in serum; immobilised aptamer; apparent; Hill fit

EC50: 59.2 mM
Structure (SMILES): CCN(CC)CCOC(=O)c1ccc(N)cc1
